viability, T/C and IC50 data for four molecules are collected here from PubChem BioAssay AID2060503 (Molecular Pharmacology Branch, DTP, NCI, 2025).

In the experiment the test system is 817829-284-R-J1-PDC complex spheroids, viability. The experiment in a line: Anticancer human tumor 817829-284-R-J1-PDC patient-derived colon adenocarcinoma cell line growth inhibition [GQUAD]. As to conditions: for viability, T/C: stronger effect = lower value. The text has this: DNA G-quadruplex Stabilizer Agents in Combinations in Complex Spheroids
A high-throughput screen of multi-cell type tumor spheroids was designed to identify active combinations of DNA G-quadruplex stabilizer agents and targeted small molecules. Complex spheroids include a stromal component modeled by human endothelial cells (HUVEC) and fibroblasts modeled by human mesenchymal stem cells (MSCs). The concentration ranges selected for each drug and investigational agent were based upon clinically achievable concentrations if the clinical Cmax of the agent was known.
Compounds. The drugs and investigational agents: pidnarulex (CX-5461; NSC782164), APTO-253 (NSC789042), BRACO-19 (NSC847499), peposertib (NSC802822), ceralasertib (NSC780249), elimusertib (NSC800525), camonsertib (NSC841442), AZD-1390 (NSC803789), olaparib (NSC753686), talazoparib (NSC767125), ART-558 (NSC835418), sotorasib (NSC818433), MRTX-1133 (NSC836407), SN-38 (NSC673596), topotecan (NSC609699), etoposide (NSC141540), doxorubicin (NSC123127), gemcitabine (NSC613327), 5-fluorouracil (NSC19893), paclitaxel (NSC125973), vemurafenib (NSC761431), panobinostat (NSC761190), R-306465 (JNJ-16241199; NSC773264), adavosertib (NSC754352), TP-3654 (NSC805149), carboplatin (NSC241240), KSQ-4279 (NSC840948), and staurosporine (NSC755774) were obtained from the National Cancer Institute (NCI) Developmental Therapeutics Program Chemical Repository (34). The FDA-approved anticancer drug set is available from the NCI Developmental Therapeutics Program. […] The stock solutions were prepared in dimethyl sulfoxide (DMSO, Sigma-Aldrich, St. Louis, MO, cat. D2650) at 800-fold the tested concentration and stored at -70 degrees C prior to their use. All drugs and investigational agents were tested over a range starting from a high concentration at or near the clinical Cmax and decreasing in half-log increments. If the clinical Cmax for an agent had not been determined, the highest concentration tested was 10 microM.
2.3 Cell Culture. All cells were maintained in an incubator at 37 degrees C and 5% CO2 with 95% humidity. The PDC lines were cultured according to standard operating procedures established by the NCI PDMR. All PDCs were thawed and cultured in Matrigel-coated flasks prepared with a working solution of 1X Ham's F-12 nutrient mix, without supplementation (Invitrogen, cat. 11765054), 100 U/mL penicillin-streptomycin (Invitrogen, cat. 15140122), and 2.5% Matrigel (Corning Inc., cat. 354248) for the first three passages. The 857933-349-R-J2-PDC line was cultured in 6C/Colon 1B media, which includes advanced DMEM/F-12 (Thermo Fisher Scientific, cat. 12634028), 10 mM HEPES (Thermo Fisher Scientific, cat. 15630080), 1X GlutaMAX supplement (Thermo Fisher Scientific, cat. 35050061), 0.1 mg/mL primocin (InvivoGen, cat. ant-pm-2), 10% defined fetal bovine serum, heat inactivated (HyClone Laboratories Inc., cat. SH30070.03HI), 50% L-WRN conditioned media (ATCC, cat. CRL-3276), 1.25 mM N-Acetyl-L-cysteine (Sigma-Aldrich, cat. A9165), 10 mM nicotinamide (Sigma-Aldrich, cat. N0636), 1X B-27 supplement (Thermo Fisher Scientific, cat. 17504044), 1X N-2 supplement (Thermo Fisher Scientific, cat. 17502048), 10 microM Y-27632 dihydrochloride (Tocris Bioscience, cat. 1254), and 50 ng/mL human EGF recombinant protein (Thermo Fisher Scientific, cat. PHG0311). The 485176-168-R4-J1-PDC line was cultured in Panc media, which includes all 6C/Colon 1B media components plus 100 ng/mL human FGF-10 (Thermo Fisher Scientific, cat. 100-26), 500 nM SB-431542 (Selleckchem, cat. S1067), and gastrin (Tocris, cat. 3006).
[…]

Broadly, the viability, T/C is the ratio of treated to control. The IC50 is the midpoint of a concentration-inhibition curve.

Where “and” joins values, the source holds several entries; their conditions need not be identical. Identical values can stand only once.
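Also: spheroids exposed to agents for 7 days before readout.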
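For viability, T/C in this document: percent viability relative to DMSO vehicle control taken as 100%.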

As to `CC1COCCN1c1cc(-c2ccnn2C)c2ccnc(-c3ccn[nH]3)c2n1` (stereo not drawn), the viability, T/C (compound 0.0316 µM) is 67.1% and 49.9% and 63.2%; the viability, T/C (compound 0.1 µM) is 15.9% and 20.1% and 19.1%; the viability, T/C (compound 0.316 µM) was 8.87% and 9.11% and 9.13%; the viability, T/C (compound 1 µM) was 5.41% and 7.67% and 7.19%; the viability, T/C (compound 3.16 µM) is 5.54% and 7.47% and 5.88%; the viability, T/C (compound 10 µM) is 4.28% and 5.96% and 5.46%. Moreover, the half-inhibitory concentration (IC50) (curve of compound) was 46.4 nM and < 31.6 nM and 44.4 nM.

`O=C(c1cc(Cc2n[nH]c(=O)c3ccccc23)ccc1F)N1CCN(C(=O)C2CC2)CC1`: the viability, T/C is, setting by setting: (compound 0.0316 µM) 113% and 106% and 116%; (compound 0.1 µM) 87.2% and 96.7% and 103%; (compound 0.316 µM) 103% and 99% and 90.6%; (compound 1 µM) 91% and 94.4% and 89.3%; (compound 3.16 µM) 89.1% and 97.4% and 95.1%; (compound 10 µM) 57.6% and 60.7% and 49%. Further, the IC50 (curve of compound) was over 10000 nM.

With `COc1ncnc(C2CC2)c1-c1ncc2cnn(Cc3ccc(-c4nc(C(F)(F)F)cn4C(C)C)cc3)c2n1`, the viability, T/C (compound 0.0316 µM) was 96.6% and 97.8% and 103%; the viability, T/C (compound 0.1 µM) was 97.4% and 111% and 113%; the viability, T/C (compound 0.316 µM) is 99.2% and 107% and 110%; the viability, T/C (compound 1 µM) was 84.8% and 117% and 106%; the viability, T/C (compound 3.16 µM) was 102% and 106% and 111%; the viability, T/C (compound 10 µM) is 116% and 114% and 115%. Further, the IC50 (curve of compound) was over 10000 nM.

Turning to `COc1ccc([C@@H](O)c2cc(-c3ncnc4cc(N5CCOCC5)ccc34)c(F)cc2Cl)nn1` + Cc1[nH]c2ccc(F)cc2c1-c1nc2c3cccnc3c3ncccc3c2[nH]1, the IC50 is, setting by setting: (curve of first compound, second compound 0.0316 µM) over 10000 nM; (curve of first compound, second compound 0.1 µM) over 10000 nM; (curve of first compound, second compound 0.316 µM) over 10000 nM; (curve of first compound, second compound 1 µM) 9780 nM; (curve of first compound, second compound 3.16 µM) 2260 nM; (curve of first compound, second compound 10 µM) 337 nM. Also, the viability, T/C reads like this: (second compound 0.0316 µM, first compound 0.0316 µM) 110%; (second compound 0.0316 µM, first compound 0.1 µM) 81.3%; (second compound 0.0316 µM, first compound 0.316 µM) 103%; (second compound 0.0316 µM, first compound 1 µM) 79.8%; (second compound 0.0316 µM, first compound 3.16 µM) 87.4%; (second compound 0.0316 µM, first compound 10 µM) 53.6%. In addition, the viability, T/C was 92.1% (second compound 0.1 µM, first compound 0.0316 µM); 111% (second compound 0.1 µM, first compound 0.1 µM); 93.4% (second compound 0.1 µM, first compound 0.316 µM); 99.7% (second compound 0.1 µM, first compound 1 µM); 84.1% (second compound 0.1 µM, first compound 3.16 µM); 51.4% (second compound 0.1 µM, first compound 10 µM). The viability, T/C runs as follows: (second compound 0.316 µM, first compound 0.0316 µM) 82.2%; (second compound 0.316 µM, first compound 0.1 µM) 111%; (second compound 0.316 µM, first compound 0.316 µM) 115%; (second compound 0.316 µM, first compound 1 µM) 97.8%; (second compound 0.316 µM, first compound 3.16 µM) 81.5%; (second compound 0.316 µM, first compound 10 µM) 51.6%. For the same molecule, the viability, T/C by setting is: (second compound 1 µM, first compound 0.0316 µM) 96.5%; (second compound 1 µM, first compound 0.1 µM) 111%; (second compound 1 µM, first compound 0.316 µM) 132%; (second compound 1 µM, first compound 1 µM) 90%; (second compound 1 µM, first compound 3.16 µM) 72.6%; (second compound 1 µM, first compound 10 µM) 48.3%. Further, the viability, T/C is, setting by setting: (second compound 3.16 µM, first compound 0.0316 µM) 102%; (second compound 3.16 µM, first compound 0.1 µM) 79%; (second compound 3.16 µM, first compound 0.316 µM) 103%; (second compound 3.16 µM, first compound 1 µM) 65.5%; (second compound 3.16 µM, first compound 3.16 µM) 45.1%; (second compound 3.16 µM, first compound 10 µM) 26%. In addition, the viability, T/C is, setting by setting: (second compound 10 µM, first compound 0.0316 µM) 41.2%; (second compound 10 µM, first compound 0.1 µM) 82.5%; (second compound 10 µM, first compound 0.316 µM) 45.6%; (second compound 10 µM, first compound 1 µM) 29.6%; (second compound 10 µM, first compound 3.16 µM) 33%; (second compound 10 µM, first compound 10 µM) 7.18%.
